In EP3895686A1, “NATURAL COMPOSITION FOR HAIR GROWTH STIMULATION AND HAIR LOSS PREVENTION AND TREATMENT” (FRAUNHOFER-GESELLSCHAFT zur Förderung der angewandten …, priority 2020, dated 2021):

Key:
Type in all cases: cell-based
[1] = system: Human Follicle Dermal Papilla Cells (HFDPC); experiment: Assessment of cell morphology by phase contrast microscopy; conditions: for cell adherence and proliferation (summary of morphology): diosgenin concentration-dependent
Protocol: (§1) First, Human Follicle Dermal Papilla Cells (HFDPC) cells were thawed and seeded into collagen-coated cell culture flasks (T25). Then the medium was changed every 48 h. After 4 days the cells were trypsinized and seeded in T75 cell culture flask. In preparation for the final experiment, the cells were trypsinized and then counted with a cell counter. The cell concentration was then adjusted in a defined amount of medium followed by seeding of the cells in 96-well plates for the subsequent cell impedance measurements (5000 cells per well) or in 24-well plates (20000 cells per well). Subsequently, the cells were cultivated for 7 days in pure culture medium with regular medium changes after 2-3 days. After 7 days, the medium with the additives listed in Table 1 was added (designated as day 0), followed by a 3-week cultivation of the cells. The medium (and addition of fresh active substances) was changed every 2-3 days. […] The following examinations were carried out after 7, 14 and 21 days.
Cell morphology was assessed through microscopic examination of the cells with an inverted microscope (phase contrast microscopy) at 10x and 20x primary magnification. The morphology of the cells provides information on the adherence behaviour of the cells,possible cell activation and cell stress. This examination was carried out on a 24-well scale.

[2] = system: Human Follicle Dermal Papilla Cells (HFDPC); experiment: VEGF-ELISA (VEGF secretion)
Protocol: VEGF belongs to the signal molecules and stimulates the proliferation and migration of HFDPC. HFDPC generate more VEGF in the anagen phase. Thus, VEGF is an indication of the anagen phase of a hair. The detection of the VEGF protein was performed with the Human VEGF ELISA Kit from Invitrogen. The procedure was performed according to the protocol contained in the test kit with the cell supernatants previously frozen at -80°C. The removal of the cell culture supernatants was carried out on a 24-well scale. A higher value for the VEGF [pg/ml] (y-axis) means a higher value of detected VEGF. A higher VEGF value is an indication for a longer anagen phase. A longer anagen phase is an indication for more hair growth.
as §1
VEGF belongs to the signal molecules and stimulates the proliferation and migration of HFDPC. HFDPC generate more VEGF in the anagen phase. Thus VEGF is an indication of the anagen phase of a hair. […] The detection of the VEGF protein was performed with the Human VEGF ELISA Kit from invitrogen. The procedure was performed according to the protocol contained in the test kit with the cell supernatants previously frozen at -80°C. The removal of the cell culture supernatants was carried out on a 24-well scale.
VEGF was analyzed in the cell culture supernatant to check whether the active ingredients have an influence on cell function and, if so, whether they promote the release of VEGF (see figure).

[3] = system: Human Follicle Dermal Papilla Cells (HFDPC); experiment: Cell count after trypsination; conditions: for cell number compared to untreated cells: depending on concentration and time; for influence on the cell count (conclusion): over 3 weeks
Protocol: as §1
This investigation was performed on a 24-well scale.
To perform this investigation 5000 cells per well were seeded in the 96-wells with the addition of a maximum of 200 µl medium. The cells were grown for 7 days in pure cell culture medium. The medium was changed every 2-3 days, whereby 100 µl of old medium was removed and replaced by 100 µl of new medium. After 7 days the "pure" cell culture medium was completely removed and medium with the respective additives was added. The cells were then cultivated for 3 weeks with regular replacement of the medium with the respective additives. Cell counting after trypsinizing: The exact cell count of HFDPC was determined after trypsination of the cells in the respective well and uptake of the resulting cell pellets in medium. All pellets of one sample were combined in a cell culture vessel and then counted with a cell counter.

[4] = system: Human Follicle Dermal Papilla Cells (HFDPC); experiment: Immunofluorescent staining of vimentin; conditions: 2c (higher concentration)
[5] = system: Human Follicle Dermal Papilla Cells (HFDPC); experiment: Cell impedance test on proliferation and toxicity (xCELLigence, cell index)
Protocol: The influence of various substances on the growth of HDPFC was investigated with the aid of a cell impedance device (xCELLigence® RTCA DP).
To perform this study 5000 HFDPC (Passage: 5) per well were seeded in the 16-well wells, coated on 50 µL collagen with the addition of a maximum of 200 µl medium. The cells were grown for 96 h in pure cell culture medium. After 96 h the "pure" cell culture medium was completely removed and medium with the respective additives was added. A further change with the respective additives took place after 48 h.
The CI (y-axis) is thus a measure of cell proliferation, cell morphology and cell vitality (only vital, adherent HFDPC can proliferate) overtime (x-axis).
The investigation of cell proliferation (cell index CI) or the exact determination of the cell number was carried out in order to detect a possible cytotoxic effect of the substances after addition to the cells. At the beginning of the experiment, the cells were confluently seeded in order to be able to " focus " on the induction of hair growth afterwards.
The influence of various substances on the growth of HDPFC was investigated with the aid of a cell impedance device (xCELLigence® RTCA DP). The xCELLigence® system consists of a measuring unit and software that allows to follow the cell invasion and migration in real time without the influence of additional substances for cell visualization, which could potentially have an impact on the cells. The system measures the electrical impedance via microelectrodes integrated on the bottom of the tissue culture E-plate. It enables the monitoring of changes in adhesion, spreading and proliferation of different cell types in real time, based on the measured cell-electrode impedance. […] This index is composed as follows: CI = (Rtn −Rt0)/(Fi) [formula]
Rtn and Rt0 are the frequency-dependent electrode resistances (a component of the impedance), where Rt0 is measured at time T0 (without cells) and Rtn with cells present. Fi depends on the frequency used in the measurement. Thus CI is a quantitative measure of the number of cells in an electrode-containing well, when comparing the same cell types. Under the same physiological conditions, more cells adhered to the electrodes result in a higher Rtn value, which leads to a higher value for CI. In the absence of living cells (cell culture medium only) or in a suspension of dead cells, the cell index values are close to zero. After cellular attachment to the electrode, the measurement signal correlates linearly with the cell count throughout the experiment. This investigation was performed on a 96-well scale. To perform this study 5000 HFDPC (Passage: 5) per well were seeded in the 96-well wells, coated on 50 µL collagen with the addition of a maximum of 200 µl medium. The cells were grown for 96 h in pure cell culture medium. After 96 h the "pure" cell culture medium was completely removed and medium with the respective additives was added. A further change with the respective additives took place after 48 h. The CI is thus a measure of cell proliferation, cell morphology and cell vitality (only vital, adherent HFDPC can proliferate). (FIG 11)

[6] = one week after addition of the active ingredients
[7] = 1c (lower concentration), after 3 weeks
[8] = 250 µg/mL in medium, first 24 hours after addition

`C[C@@H]1CC[C@@]2(OC1)O[C@H]1C[C@H]3[C@@H]4CC=C5C[C@@H](O)CC[C@]5(C)[C@H]4CC[C@]3(C)[C@H]1[C@@H]2C` [diosgenin, Diosgenin] was tested, and the “cell morphology / confluence” value ([1]; after 3 weeks, lower concentration) was “resembled untreated cells”, the “cell adherence and proliferation (summary of morphology)” value ([1]; after 3 weeks) was “very beneficial for cell adherence and proliferation” and the “cell morphology / confluence” value [1, 6] was “greater confluence”. For the same compound, the “cell morphology / confluence” value ([1]; second week of the experiment) was “very high confluence in the well and elongated, typical growth”, the VEGF release ([2]; 1c (lower concentration), after 1 week) was “lower VEGF release” and the VEGF release [2, 7] was “lower VEGF release”. The “number of HDFPC over time” value ([3]; 1c) was “remained constant after addition of Diosgenin 1c, but was increased compared to untreated cells”, the “cell number over time” value ([3]; 2c, compared to untreated and Diosgenin 1c treated cells) was “significant increase in cell number” and the “cell number compared to untreated cells” value [3] was “positive influence on the cell number”. For the same compound, the “influence on the cell count (conclusion)” value [3] was “positive influence on the cell count”, the “cell spreading and attachment to the cell culture substrate (vimentin staining)” value [4] was “able to clearly spread and attach to the cell culture substrate” and the “toxic effect on the cells” value ([5]; measured maximum concentration of 500 µg/mL) was “not toxic”.
With `CCCCC/C=C\C/C=C\C/C=C\C/C=C\CCCC(=O)[O-].[Na+]` [arachidonate, Sodium Arachidonate] the “cell morphology / confluence” value ([1]; second week of the experiment) was “almost the same morphology”, the cell density ([1]; second week, higher concentration) was “higher cell density” and the VEGF release [2, 7] was “lower VEGF release”. For the same compound, the cell count ([3]; after 3 weeks, higher concentration, compared to untreated cells) was “increase in HFDPC”, the cell count ([3]; entire duration of the experiment, independent of time and concentration) was “did not negatively affect the cell count” and the cell count ([3]; over 2 weeks) was “remained constant”. For the same compound, the “cell spreading and attachment to the cell culture substrate (vimentin staining)” value [4] was “able to clearly spread and attach to the cell culture substrate”, the cell index ([5]; 50 µg/mL in medium) was “increase the cell index” and the “toxic effect on the cells” value ([5]; 50 µg/mL in medium) was “does not have a toxic effect”. For the same compound, the “toxic effect on the cells” value ([5]; 100µg/mL in medium) was “has a toxic effect”.
With `CCCCCC[C@@H](O)C/C=C\CCCCCCCC(=O)O` [ricinoleic acid, 12-hydroxy-9-cis-octadecenoic acid] the “cell morphology / confluence” value ([1]; after 3 weeks, both concentrations) was “confluent, very dense monolayer and an elongated cell shape”, the “cell adherence and proliferation (summary of morphology)” value ([1]; after 3 weeks) was “very beneficial for cell adherence and proliferation” and the “cell morphology / confluence” value [1, 6] was “greater confluence”. The “cell morphology / confluence” value ([1]; second week of the experiment) was “very high confluence in the well and elongated, typical growth”, the VEGF release ([2]; 2.c (higher concentration), after 3 weeks) was “lower VEGF release” and the cell count ([3]; after 1 week, compared to untreated cells) was “the difference was visible in both treated groups compared to untreated cells”. The “cell number compared to untreated cells” value [3] was “significant increase in cell count”, the “influence on the cell count (conclusion)” value [3] was “positive influence on the cell count” and the cell index ([5]; 100µg/mL, after 24 h and 48 h addition) was “remained constant”. For the same compound, the cell index [5, 8] was “positive influence on the cell index”, the “toxic effect on the cells” value [5, 8] was “does not appear to have a toxic effect” and the cell index ([5]; 250 µg/mL, after 48h of repeated addition) was “decreases”.
